Experimental data from patent US20060069132A1, “Azolecarboxamide herbicides” (priority 2004, published 2006).
Where two headings read alike, the source gives them in different places.

Assays:
barnyardgrass [1] = test: Test B pre-/postemergence herbicide test; assay type: in vivo, Echinochloa crus-galli; conditions: for pest or weed control at 500 g/ha: 500 g ai/ha
How it was run: (§1)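 Visual rating, 0 (no effect) to 100 (complete control), versus untreated controls after 13–15 d in greenhouse. Pre- and postemergence applications (postemergence plants 2–18 cm, 1–4 leaves); flooded paddy arm at 2-leaf stage. Compounds in non-phytotoxic solvent plus surfactant.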

lambsquarters = test: Test B pre-/postemergence herbicide test; assay type: in vivo, Chenopodium album; conditions: for pest or weed control at 500 g/ha: 500 g ai/ha
How it was run: (§2)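 Herbicidal effect was judged by eye on a 0–100 scale after plants stood 13 to 15 days in the greenhouse following pre- or postemergence treatment with surfactant-containing formulations.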

[2] = test system: small flower umbrella sedge; test: Test B flooded paddy test; assay type: in vivo, Cyperus difformis; conditions: Cyperus difformis, 336 h, 1000 g ai/ha, scale 0 to 100 (0 no effect, 100 complete control), read-out: Sedge, Umbrella plant response rating
How it was run: (§3)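 Visual ratings, 0 (no effect) to 100 (complete control), made versus controls after 13–15 d greenhouse. Paddy plants treated at 2-leaf stage; postemergence plants at 1- to 4-leaf stage, 2–18 cm tall.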

wild oat = test: Test B postemergence herbicide test; assay type: in vivo, Avena fatua; conditions: Avena fatua, post-emergence, 336 h, read-out: Oat, Wild plant response rating
How it was run: as §3

pigweed = test: Test B pre-/postemergence herbicide test; assay type: in vivo, Amaranthus retroflexus; conditions: for pest or weed control at 500 g/ha: 500 g ai/ha
How it was run: as §2

ducksalad = test: Test B flooded paddy test; assay type: in vivo, Heteranthera limosa; conditions: Heteranthera limosa, 336 h, 1000 g ai/ha, scale 0 to 100 (0 no effect, 100 complete control), read-out: Ducksalad plant response rating
How it was run: as §3

cocklebur = test: Test B pre-/postemergence herbicide test; assay type: in vivo, Xanthium strumarium; conditions: for pest or weed control at 500 g/ha: 500 g ai/ha
How it was run: as §1

giant foxtail = test: Test B pre-/postemergence herbicide test; assay type: in vivo, Setaria faberi; conditions: for pest or weed control at 500 g/ha: 500 g ai/ha
How it was run: as §2

large crabgrass = test: Test B pre-/postemergence herbicide test; assay type: in vivo, Digitaria sanguinalis; conditions: for pest or weed control at 500 g/ha: 500 g ai/ha
How it was run: as §2

wheat = test: Test B postemergence herbicide test; assay type: in vivo, Triticum aestivum; conditions: Triticum aestivum, post-emergence, 336 h, read-out: Wheat plant response rating
How it was run: as §3

Surinam grass = test: Test B pre-/postemergence herbicide test; assay type: in vivo, Urochloa decumbens; conditions: for pest or weed control at 500 g/ha: 500 g ai/ha
How it was run: as §2

blackgrass = test: Test B postemergence herbicide test; assay type: in vivo, Alopecurus myosuroides; conditions: Alopecurus myosuroides, post-emergence, 336 h, read-out: Blackgrass plant response rating
How it was run: as §3

corn = test: Test B pre-/postemergence herbicide test; assay type: in vivo, Zea mays
How it was run: as §2

barnyardgrass [3] = test: Test B flooded paddy test; assay type: in vivo, Echinochloa crus-galli; conditions: Echinochloa crus-galli, 336 h, 1000 g ai/ha, scale 0 to 100 (0 no effect, 100 complete control), read-out: Barnyardgrass plant response rating
How it was run: as §3

morningglory = test: Test B pre-/postemergence herbicide test; assay type: in vivo, Ipomoea coccinea; conditions: for pest or weed control at 500 g/ha: 500 g ai/ha
How it was run: as §1

rice = test: Test B flooded paddy test; assay type: in vivo, Oryza sativa; conditions: Oryza sativa, 336 h, 1000 g ai/ha, scale 0 to 100 (0 no effect, 100 complete control), read-out: Rice plant response rating
How it was run: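 Treated at 2-leaf (paddy) or 1–4-leaf, 2–18 cm (postemergence); greenhouse 13–15 d; visual score vs control, 0 none to 100 complete control; dash = not tested.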

[4] = 125 g ai/ha, 0 is no effect, 100 is complete control, preemergence
[5] = 125 g ai/ha, visual rating, scale 0 (no effect) to 100 (complete control)
[6] = postemergence, 500 g ai/ha, scale 0 to 100, 0 is no effect, 100 is complete control

CCn1nc2c(c1C(=O)Nc1cc(C(=O)N(C)C)ccc1F)CCC2(C)C [Compound 352, N-[5-[(dimethylamino)carbonyl]-2-fluorophenyl]-2-ethyl-2,4,5,6-tetrahydro-6,6-dimethyl-3-cyclopentapyrazolecarboxamide]
Plant response rating (0 to 100 scale), Barnyardgrass (barnyardgrass [1]; [4]): 70 | pest or weed control at 125 g/ha (barnyardgrass [1]; Echinochloa crus-galli, post-emergence, 125 g ai/ha, visual rating, scale 0 (no effect) to 100 (complete control), read-out: Barnyardgrass plant response rating): 0% | pest or weed control at 500 g/ha (barnyardgrass [1]; Echinochloa crus-galli, post-emergence, postemergence, scale 0 to 100, 0 is no effect, 100 is complete control, read-out: Barnyardgrass plant response rating): 10% | pest or weed control at 500 g/ha (barnyardgrass [1]; Echinochloa crus-galli, pre-emergence, visual rating, 0 = no effect, 100 = complete control, read-out: Plant response rating, Barnyardgrass): 90% | Plant response rating (0 to 100 scale), Lambsquarters (lambsquarters; [4]): 90 | pest or weed control at 125 g/ha (lambsquarters; Chenopodium album, post-emergence, 336 h, 125 g ai/ha, visual rating, scale 0 (no effect) to 100 (complete control), read-out: Lambsquarters plant response rating): 10% | pest or weed control at 500 g/ha (lambsquarters; Chenopodium album, post-emergence, 336 h, postemergence, scale 0 to 100, 0 is no effect, 100 is complete control, read-out: Lambsquarters plant response rating): 60% | pest or weed control at 500 g/ha (lambsquarters; Chenopodium album, pre-emergence, 336 h, visual rating, 0 = no effect, 100 = complete control, read-out: Plant response rating, Lambsquarters): 100% | pest or weed control at 1000 g/ha [2]: 80% | pest or weed control at 125 g/ha (wild oat; [5]): 0% | pest or weed control at 500 g/ha (wild oat; [6]): 20% | Plant response rating (0 to 100 scale), Pigweed (pigweed; [4]): 50 | pest or weed control at 125 g/ha (pigweed; Amaranthus retroflexus, post-emergence, 336 h, 125 g ai/ha, visual rating, scale 0 (no effect) to 100 (complete control), read-out: Pigweed plant response rating): 10% | pest or weed control at 500 g/ha (pigweed; Amaranthus retroflexus, post-emergence, 336 h, postemergence, scale 0 to 100, 0 is no effect, 100 is complete control, read-out: Pigweed plant response rating): 60% | pest or weed control at 500 g/ha (pigweed; Amaranthus retroflexus, pre-emergence, 336 h, visual rating, 0 = no effect, 100 = complete control, read-out: Plant response rating, Pigweed): 70% | pest or weed control at 1000 g/ha (ducksalad): 90% | Plant response rating (0 to 100 scale), Cocklebur (cocklebur; [4]): 0 | pest or weed control at 125 g/ha (cocklebur; Xanthium strumarium, post-emergence, 125 g ai/ha, visual rating, scale 0 (no effect) to 100 (complete control), read-out: Cocklebur plant response rating): 0% | pest or weed control at 500 g/ha (cocklebur; Xanthium strumarium, post-emergence, postemergence, scale 0 to 100, 0 is no effect, 100 is complete control, read-out: Cocklebur plant response rating): 10% | pest or weed control at 500 g/ha (cocklebur; Xanthium strumarium, pre-emergence, visual rating, 0 = no effect, 100 = complete control, read-out: Plant response rating, Cocklebur): 0% | Plant response rating (0 to 100 scale), Foxtail, Giant (giant foxtail; [4]): 70 | pest or weed control at 125 g/ha (giant foxtail; Setaria faberi, post-emergence, 336 h, 125 g ai/ha, visual rating, scale 0 (no effect) to 100 (complete control), read-out: Foxtail, Giant plant response rating): 10% | pest or weed control at 500 g/ha (giant foxtail; Setaria faberi, post-emergence, 336 h, postemergence, scale 0 to 100, 0 is no effect, 100 is complete control, read-out: Foxtail, Giant plant response rating): 30% | pest or weed control at 500 g/ha (giant foxtail; Setaria faberi, pre-emergence, 336 h, visual rating, 0 = no effect, 100 = complete control, read-out: Plant response rating, Foxtail, Giant): 100% | Plant response rating (0 to 100 scale), Crabgrass, Large (large crabgrass; [4]): 90 | pest or weed control at 125 g/ha (large crabgrass; Digitaria sanguinalis, post-emergence, 125 g ai/ha, visual rating, scale 0 (no effect) to 100 (complete control), read-out: Crabgrass, Large plant response rating): 20% | pest or weed control at 500 g/ha (large crabgrass; Digitaria sanguinalis, post-emergence, postemergence, scale 0 to 100, 0 is no effect, 100 is complete control, read-out: Crabgrass, Large plant response rating): 20% | pest or weed control at 500 g/ha (large crabgrass; Digitaria sanguinalis, pre-emergence, visual rating, 0 = no effect, 100 = complete control, read-out: Plant response rating, Crabgrass, Large): 100% | plant injury at 125 g/ha (wheat; [5]): 10% | plant injury at 500 g/ha (wheat; [6]): 20% | Plant response rating (0 to 100 scale), Surinam Grass (Surinam grass; [4]): 90 | pest or weed control at 125 g/ha (Surinam grass; Urochloa decumbens, post-emergence, 125 g ai/ha, visual rating, scale 0 (no effect) to 100 (complete control), read-out: Surinam Grass plant response rating): 10% | pest or weed control at 500 g/ha (Surinam grass; Urochloa decumbens, post-emergence, postemergence, scale 0 to 100, 0 is no effect, 100 is complete control, read-out: Surinam Grass plant response rating): 40% | pest or weed control at 500 g/ha (Surinam grass; Urochloa decumbens, pre-emergence, visual rating, 0 = no effect, 100 = complete control, read-out: Plant response rating, Surinam Grass): 100% | pest or weed control at 125 g/ha (blackgrass; [5]): 10% | pest or weed control at 500 g/ha (blackgrass; [6]): 30% | Plant response rating (0 to 100 scale), Corn (corn; [4]): 60 | plant injury at 125 g/ha (corn; Zea mays, post-emergence, 125 g ai/ha, visual rating, scale 0 (no effect) to 100 (complete control), read-out: Corn plant response rating): 0% | plant injury at 500 g/ha (corn; Zea mays, post-emergence, postemergence, 500 g ai/ha, scale 0 to 100, 0 is no effect, 100 is complete control, read-out: Corn plant response rating): 10% | Corn plant response rating (crop injury, 0 = no effect, 100 = complete kill) at 500 g/ha (corn; Zea mays, pre-emergence, 500 g ai/ha, visual rating, 0 = no effect, 100 = complete control): 80% | pest or weed control at 1000 g/ha (barnyardgrass [3]): 90% | Plant response rating (0 to 100 scale), Morningglory (morningglory; [4]): 0 | pest or weed control at 125 g/ha (morningglory; Ipomoea, post-emergence, 336 h, 125 g ai/ha, visual rating, scale 0 (no effect) to 100 (complete control), read-out: Morningglory plant response rating): 10% | pest or weed control at 500 g/ha (morningglory; Ipomoea, post-emergence, 336 h, postemergence, scale 0 to 100, 0 is no effect, 100 is complete control, read-out: Morningglory plant response rating): 60% | pest or weed control at 500 g/ha (morningglory; Ipomoea, pre-emergence, 336 h, visual rating, 0 = no effect, 100 = complete control, read-out: Plant response rating, Morningglory): 0% | plant injury at 1000 g/ha (rice): 70%
